Results on 2 compounds are retold here after patent publication US9814747B2, “Methods for inhibiting HIV-1 activity by inhibitory mechanisms of extracts of Guaiacum officinale L. (Zygophyllaceae)” (priority 2014, dated 2017).

The subject of data set [1] is HIV-1 BaL. The data set can be described thus: anti-HIV bioassay: HIV-1 p24 production in infected PHA-activated PBMCs (ELISA, day 7). In kind it is cell-based. Conditions: PBMCs infected with HIV-1 BaL; result in words. On the procedure: Stocks of crude drug made from G. officinale L. were prepared in Dimethyl sulfoxide (DMSO) in a stock solution of 10 mg/ml. Dilutions from the stock were made and the final concentration of DMSO in the cultures was always <0.1% to avoid cell toxicity. Peripheral blood mononuclear cells (PBMCs) were separated from buffy coats of HIV-1 seronegative donors (New York Blood Center, NY) by density centrifugation over Ficoll-Hypaque (Sigma). Briefly, the buffy coat suspension was diluted 1:2 with phosphate-buffered saline solution (PBS). Then, 35 ml were layered onto 15 ml of Ficoll® Paque PLUS (GE Healthcare), a ready to use sterile medium for isolation of lymphocytes and were centrifuged by standard ficoll-paque gradient centrifugation according to manufacturer's protocol (GE Healthcare) for 25 min at 400×g. The white interphase containing the PBMCs was collected and washed three times with PBS. […] On day 7, HIV-1 p24 protein production in the culture supernatant was measured using a commercial ELISA kit (Coulter, Hialeah, Fla.) and cell viability using a colorimetric MTT kit (Roche). […] The quantity of formazan produced (absorbance at 490 nm) is directly proportional to the number of living cells. […] MTT conversion to formazan by mitochondrial dehydrogenase was assayed by optical density at 490 nm measured in an ELISA plate reader. […]
A general note: In an ELISA, binding on a coated surface is turned into a signal by an enzyme label.

In data set [2] the test system is 3 cancer cell lines. As to the kind of experiment: cell proliferation assay against cancer cell lines. Particulars: result in words. It is filed as cell-based.
The subject of data set [3] is brine shrimp. Particulars: result in words; cited from earlier work.
In data set [4] the test system is Pseudomonas pseudomaliae. Particulars: result in words; cited from earlier work.

As to `CC1(C)CC[C@]2(C(=O)O)CC[C@]3(C)C(=CC[C@@H]4[C@@]5(C)CC[C@H](O[C@@H]6OC[C@@H](O)[C@H](OC7O[C@H](CO)[C@H](O)[C@H](O)[C@H]7O)[C@H]6O)C(C)(C)[C@@H]5CC[C@]43C)[C@@H]2C1` (stereo partly shown) [HL-038], the Anti-HIV-1 activity entry in data set [1] is listed as “moderate activity”. For the same compound, the “activity against 3 cancer cell lines” value in data set [2] was “moderate activity”.

Turning to guaianin N, the brine shrimp toxicity entry in data set [3] is given as “toxicity”. In addition, the “antibacterial activity against Pseudomonas pseudomaliae” value in data set [4] is “antibacterial activity”.
